Measured values published in ChEMBL document CHEMBL1143302, “Identification of 3-amido-4-anilinoquinolines as potent and selective inhibitors of CSF-1R kinase” (Bioorg Med Chem Lett, 2009).

Key:
Type in all cases: ADME, organism-based
[1] = Volume of distribution at steady state in rat at 3 mg/kg, iv and 10 mg/kg, po; conditions: in vivo, read-out: Vdss
[2] = Clearance in rat at 3 mg/kg, iv and 10 mg/kg, po; conditions: in vivo
[3] = Half life in rat at 3 mg/kg, iv and 10 mg/kg, po; conditions: in vivo
[4] = Bioavailability in rat at 3 mg/kg, iv and 10 mg/kg, po; conditions: in vivo

Row | Compound | Vd [1] [L/kg] | clearance [2] [mL/min/kg] | half-life [3] [h] | bioavailability [4] [%]
1 | COc1cc2ncc(C(N)=O)c(Nc3ccc(F)c(Cl)c3)c2cc1OC | 1.8 | 59 | 0.6 | 24
2 | COc1cc2c(Nc3ccc(F)c(Cl)c3)c(C(N)=O)cnc2cc1OCCN(C)C | 40 | 210 | 2.1 | –
3 | COc1cc2ncc(C(N)=O)c(Nc3cccc(Cl)c3Cl)c2cc1OC | 4.1 | 115 | 0.5 | –
4 | COc1cc2ncc(C(N)=O)c(Nc3ccc(F)cc3)c2cc1OC | 0.3 | 7 | 0.9 | 96
5 | COc1cc2c(Nc3ccc(F)c(Cl)c3)c(C(N)=O)cnc2cc1OCCNC1CC1 | 30 | 230 | 1.7 | –
6 | COc1cc2c(Nc3cccc(Cl)c3Cl)c(C(N)=O)cnc2cc1NCCN(C)C | 19 | 90 | 2.4 | –

More lines, now with the values ahead:

Row | Vd [1] [L/kg] | clearance [2] [mL/min/kg] | half-life [3] [h] | bioavailability [4] [%] | Compound
7 | 36 | 220 | 1.9 | – | COc1cc2c(Nc3ccc(F)cc3F)c(C(N)=O)cnc2cc1NCCN(C)C
8 | 12 | 110 | 1.6 | – | CCOc1cc2ncc(C(N)=O)c(Nc3cccc(Cl)c3Cl)c2cc1NCCN1CCCCC1
9 | 8.5 | 78 | 1.6 | – | COc1cc2ncc(C(N)=O)c(Nc3cccc(Cl)c3Cl)c2cc1NCCN1CCCCC1
10 | 52 | 270 | 2.4 | – | COc1cc2c(Nc3ccc(F)c(Cl)c3)c(C(N)=O)cnc2cc1OCCN1CCCC1
